Measured values: the supplement of paper PMC10307832

Key:
Assay in all cases: relative viability (nuclei count vs DMSO), 5 days (fraction); higher = more cells survive
[1] = tested on: BEN
In short: (§1)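 A single step with final 0.05% Triton X-100, 1% formaldehyde and 1 ug/ml Hoechst fixed the cells and stained nuclei 5 days after treatment. Lung cancer cell lines in 1536-well plates had been treated by pin tool the day after seeding with one drug alone or a fixed anchor-drug dose plus five library-drug doses (not always all listed) in √10 steps, and nuclei were counted on 4× images. Relative viability is the ratio of nuclei in treated wells to nuclei in vehicle wells, taken as the median of duplicate plates.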

[2] = tested on: ChaGo-K-1
In short: as §1

[3] = tested on: EKVX
In short: as §1

[4] = tested on: HCC-827
In short: as §1

[5] = tested on: HOP-62
In short: as §1

[6] = tested on: LCLC-103H
In short: as §1

[7] = tested on: LK-2
In short: as §1

[8] = tested on: LOU-NH91
In short: as §1

[9] = tested on: LXF-289
In short: as §1

[10] = tested on: NCI-H1355
In short: as §1

[11] = tested on: NCI-H1437
In short: as §1

[12] = tested on: NCI-H1666
In short: as §1

[13] = tested on: NCI-H1944
In short: as §1

[14] = tested on: NCI-H1993
In short: as §1

[15] = tested on: NCI-H2126
In short: as §1

[16] = tested on: NCI-H2170
In short: as §1

[17] = tested on: NCI-H441
In short: as §1

[18] = tested on: NCI-H647
In short: as §1

[19] = tested on: NCI-H661
In short: as §1

[20] = tested on: NCI-H727
In short: as §1

[21] = tested on: PC-14
In short: as §1

[22] = tested on: RERF-LC-KJ
In short: as §1

[23] = tested on: SK-MES-1
In short: as §1

Compound: Cc1csc(=NC2CCCCC2)n1/N=C/c1ccc(O)c(O)c1O [MIM1] + CC(=O)Nc1cccc(-n2c(=O)n(C3CC3)c(=O)c3c(Nc4ccc(I)cc4F)n(C)c(=O)c(C)c32)c1 [Trametinib] (partner 0.02 µM)
- relative viability ([1]; first compound 0.2 µM): 1.22
- relative viability ([1]; first compound 0.6325 µM): 1.1
- relative viability ([1]; first compound 2 µM): 1.03
- relative viability ([1]; first compound 6.325 µM): 1.1
- relative viability ([1]; first compound 20 µM): 0.578
- relative viability ([2]; first compound 0.2 µM): 0.889
- relative viability ([2]; first compound 0.6325 µM): 0.913
- relative viability ([2]; first compound 2 µM): 0.876
- relative viability ([2]; first compound 6.325 µM): 0.607
- relative viability ([2]; first compound 20 µM): 0.193
- relative viability ([3]; first compound 0.2 µM): 0.304
- relative viability ([3]; first compound 0.6325 µM): 0.287
- relative viability ([3]; first compound 2 µM): 0.289
- relative viability ([3]; first compound 6.325 µM): 0.267
- relative viability ([3]; first compound 20 µM): 0.269
- relative viability ([4]; first compound 0.2 µM): 0.501
- relative viability ([4]; first compound 0.6325 µM): 0.506
- relative viability ([4]; first compound 2 µM): 0.522
- relative viability ([4]; first compound 6.325 µM): 0.384
- relative viability ([4]; first compound 20 µM): 0.443
- relative viability ([5]; first compound 0.2 µM): 0.386
- relative viability ([5]; first compound 0.6325 µM): 0.417
- relative viability ([5]; first compound 2 µM): 0.379
- relative viability ([5]; first compound 6.325 µM): 0.344
- relative viability ([5]; first compound 20 µM): 0.266
- relative viability ([6]; first compound 0.2 µM): 0.662
- relative viability ([6]; first compound 0.6325 µM): 0.687
- relative viability ([6]; first compound 2 µM): 0.694
- relative viability ([6]; first compound 6.325 µM): 0.669
- relative viability ([6]; first compound 20 µM): 0.394
- relative viability ([7]; first compound 0.2 µM): 1.02
- relative viability ([7]; first compound 0.6325 µM): 0.693
- relative viability ([7]; first compound 2 µM): 0.625
- relative viability ([7]; first compound 6.325 µM): 1.02
- relative viability ([7]; first compound 20 µM): 0.236
- relative viability ([8]; first compound 0.2 µM): 0.795
- relative viability ([8]; first compound 0.6325 µM): 0.839
- relative viability ([8]; first compound 2 µM): 0.646
- relative viability ([8]; first compound 6.325 µM): 0.7
- relative viability ([8]; first compound 20 µM): 0.349
- relative viability ([9]; first compound 0.2 µM): 0.625
- relative viability ([9]; first compound 0.6325 µM): 0.664
- relative viability ([9]; first compound 2 µM): 0.705
- relative viability ([9]; first compound 6.325 µM): 0.607
- relative viability ([9]; first compound 20 µM): 0.221
- relative viability ([10]; first compound 0.2 µM): 0.419
- relative viability ([10]; first compound 0.6325 µM): 0.436
- relative viability ([10]; first compound 2 µM): 0.457
- relative viability ([10]; first compound 6.325 µM): 0.384
- relative viability ([10]; first compound 20 µM): 0.375
- relative viability ([11]; first compound 0.2 µM): 0.454
- relative viability ([11]; first compound 0.6325 µM): 0.475
- relative viability ([11]; first compound 2 µM): 0.456
- relative viability ([11]; first compound 6.325 µM): 0.239
- relative viability ([11]; first compound 20 µM): 0.237
- relative viability ([12]; first compound 0.2 µM): 0.929
- relative viability ([12]; first compound 0.6325 µM): 0.833
- relative viability ([12]; first compound 2 µM): 0.847
- relative viability ([12]; first compound 6.325 µM): 0.826
- relative viability ([12]; first compound 20 µM): 0.426
- relative viability ([13]; first compound 0.2 µM): 0.386
- relative viability ([13]; first compound 0.6325 µM): 0.462
- relative viability ([13]; first compound 2 µM): 0.307
- relative viability ([13]; first compound 6.325 µM): 0.364
- relative viability ([13]; first compound 20 µM): 0.265
- relative viability ([14]; first compound 0.2 µM): 0.433
- relative viability ([14]; first compound 0.6325 µM): 0.43
- relative viability ([14]; first compound 2 µM): 0.511
- relative viability ([14]; first compound 6.325 µM): 0.448
- relative viability ([14]; first compound 20 µM): 0.351
- relative viability ([15]; first compound 0.2 µM): 0.553
- relative viability ([15]; first compound 0.6325 µM): 0.579
- relative viability ([15]; first compound 2 µM): 0.598
- relative viability ([15]; first compound 6.325 µM): 0.503
- relative viability ([15]; first compound 20 µM): 0.388
- relative viability ([16]; first compound 0.2 µM): 0.859
- relative viability ([16]; first compound 0.6325 µM): 1.01
- relative viability ([16]; first compound 2 µM): 0.914
- relative viability ([16]; first compound 6.325 µM): 0.609
- relative viability ([16]; first compound 20 µM): 0.368
- relative viability ([17]; first compound 0.2 µM): 0.558
- relative viability ([17]; first compound 0.6325 µM): 0.409
- relative viability ([17]; first compound 2 µM): 0.484
- relative viability ([17]; first compound 6.325 µM): 0.302
- relative viability ([17]; first compound 20 µM): 0.211
- relative viability ([18]; first compound 0.2 µM): 0.435
- relative viability ([18]; first compound 0.6325 µM): 0.567
- relative viability ([18]; first compound 2 µM): 0.415
- relative viability ([18]; first compound 6.325 µM): 0.413
- relative viability ([18]; first compound 20 µM): 0.18
- relative viability ([19]; first compound 0.2 µM): 0.607
- relative viability ([19]; first compound 0.6325 µM): 0.587
- relative viability ([19]; first compound 2 µM): 0.554
- relative viability ([19]; first compound 6.325 µM): 0.406
- relative viability ([19]; first compound 20 µM): 0.348
- relative viability ([20]; first compound 0.2 µM): 0.371
- relative viability ([20]; first compound 0.6325 µM): 0.407
- relative viability ([20]; first compound 2 µM): 0.393
- relative viability ([20]; first compound 6.325 µM): 0.427
- relative viability ([20]; first compound 20 µM): 0.383
- relative viability ([21]; first compound 0.2 µM): 0.663
- relative viability ([21]; first compound 0.6325 µM): 0.882
- relative viability ([21]; first compound 2 µM): 0.479
- relative viability ([21]; first compound 6.325 µM): 0.621
- relative viability ([21]; first compound 20 µM): 0.17
- relative viability ([22]; first compound 0.2 µM): 0.832
- relative viability ([22]; first compound 0.6325 µM): 0.801
- relative viability ([22]; first compound 2 µM): 0.666
- relative viability ([22]; first compound 6.325 µM): 0.56
- relative viability ([22]; first compound 20 µM): 0.3
- relative viability ([23]; first compound 0.2 µM): 0.569
- relative viability ([23]; first compound 0.6325 µM): 0.601
- relative viability ([23]; first compound 2 µM): 0.58
- relative viability ([23]; first compound 6.325 µM): 0.518
- relative viability ([23]; first compound 20 µM): 0.514
